≈ marks a conversion by molar mass, not a printed value. Read-outs that look alike come from different tables or passages of the source. Positions of bridges follow the written chain, without caps; N, C: chain ends. Residues, ends and D or L forms follow the SMILES beside them.

These results are taken from PMC11013252, “Exploration of the Antibacterial and Anti-Inflammatory Activity of a Novel Antimicrobial Peptide Brevinin-1BW” (Molecules, 2024).

In one data set the test system is sheep erythrocytes. Format: cell-based. As to conditions: red cells of sheep, 2 h. The protocol:
A hemolytic assay of Brevinin-1BW was conducted using sheep erythrocytes (Solarbio, Beijing, China) at a concentration of 2% (v/v) of erythrocyte suspension. […] After centrifugation at 1000 rpm for 15 min, the absorbance of the supernatant was analyzed using a multifunctional enzyme standardizer with the wavelength set at 570 nm. The experiment was repeated three times. […] Haemolysis%=(A0−A2)/(A0−A1)×100

Data set [1] concerns E. hormaechei (ATCC700323). The data set is described as follows: microbe, parasite or virus in culture. Format: cell-based, Enterobacter hormaechei. To be noted: ATCC700323, 18 h. The protocol:
(§1) The minimum inhibitory concentration (MIC) of the Brevinin-1BW was measured in 96-well microtiter plates according to the Clinical and Laboratory Standards Institute (CLSI). The activated strains were treated with Mueller Hinton Agar (MHA) solid medium. Single colonies were picked and expanded to the logarithmic growth phase, and the solution was diluted to 2 × 10^6 CFU/mL using the McFarland turbidity standard. The MIC was determined with the two-fold dilution method. Briefly, 50 μL of Mueller Hinton (MH) medium was added to a 96-well plate in advance. Then, 50 μL of AMP solution was added to the first well, and 50 μL was pipetted into the next well after mixing using a row gun, while 50 μL was discarded from the last well. Final concentrations of Brevinin-1BW were 100, 50, 25, 12.5, 6.25, and 3.125 μg/mL. A 50 μL volume of the diluted bacterial solution was added, and the final concentration of the bacterial solution was 1 × 10^6 CFU/mL. This was then placed into a 37 °C incubator for 18 h until the next day to observe the degree of turbidity of the 96-well plate and measure the absorbance of the wells at 600 nm with a multifunctional microplate reader (SpectraMax iD5, Molecular Devices, Sunnyvale, CA, USA). The absence of turbidity and the measured concentration of absorbance being less than the opposing group was taken as the MIC. The positive control used ampicillin at the same final concentration as Brevinin-1BW, the negative control used 50 μL of MH medium mixed with 50 μL of 2 × 10^6 CFU/mL bacterial solution, and the blank contained only 100 μL of MH medium. Three replicate wells were set up for each experiment, and each experiment was repeated three times. The MIC and all concentrations above the MIC of bacterial solution coated on MHA solid medium were placed into 37 °C incubator incubation for 18 h. The lowest concentration resulting in no colony growth was taken as the minimum bactericidal concentration (MBC).

The test system of a further data set is E. coli (ATCC25922). Put plainly: microbe, parasite or virus in culture. Type of data set: cell-based. To be noted: ATCC25922, 18 h. As to the method:
as §1

Data set [2] has as its system S. saprophytics (ATCCBAA750). The data set is described as follows: microbe, parasite or virus in culture. To be noted: ATCCBAA750, 18 h. Type of data set: cell-based, Staphylococcus saprophyticus. The protocol:
as §1

The test system of the next data set is S. aureus (ATCC 25923). Type of data set: cell-based, Staphylococcus aureus. To be noted: ATCC 25923, 1 h. As to the method:
The temperature, serum, and pH stability of antimicrobial peptide Brevinin-1BW was investigated. S. aureus (ATCC 25923) was used to determine its stability. The antimicrobial peptide solution was prepared and placed at −20 °C, 4 °C, 37 °C, 60 °C, and 100 °C for 1 h. The MIC was measured with 96-well plate method to detect the effect of temperature. […] The pH stability was achieved by inoculating S. aureus into MH medium and culturing them with shaking to reach the logarithmic growth phase. This was then diluted to 10^6 CFU/mL. Brevinin-1BW was incubated in PBS at various pH values, pH = 2 or 12, for 1 h at 37 °C. The minimal inhibitory concentrations (MIC) of the peptides were then determined. All the above experiments were repeated more than three times.

Data set [3] concerns S. aureus (ATCC 25923) biofilm formation. Format: cell-based, Staphylococcus aureus. As to conditions: ATCC 25923, 24 h. As to the method: The plates were washed three times with sterile PBS and fixed with methanol for 0.5 h. After drying, the cells were stained with 1% crystal violet solution for 0.5 h. They were washed three times with deionized water and dissolved in 100 µL absolute ethanol. Absorbance was measured at 600 nm. Experiments were repeated four times independently.

The next data set deals with HaCaT. Type of data set: cell-based, human. To be noted: 24 h. As to the method: (§2) Medium was prepared to contain 10% FBS (TransGen Biotech, China) and 1% penicillin-streptomycin (Biosharp, Guangzhou, China). A549, U-2OS, HePG2, HaCaT, HUVEC, and 293T cells were cultured in DMEM medium (Gibco, New York, NY, USA). A375, HCT116, Hela, and RAW264.7 cells were cultured in RPMI 1640 medium (Gibco, New York, NY, USA). The cytotoxicity of Brevinin-1BW was determined using the Cell Counting Kit-8 as follows: detached the cells from cell culture flasks with 0.25% trypsin, counted with a hemocytometer plate and then prepared into a cell suspension containing 5 × 10^3 cells/mL. Then, 90 μL of the cell suspension was inoculated into a 96-well plate and incubated at 37 °C in a 5% CO2-humidified atmosphere for 24 h. A 10 μL volume of the peptide was subsequently added to each well and co-incubated with the cells for 24 h. Then, 10 μL of CCK8 (Abbkine, Wuhan, China) was added to each well and incubated for a further 2 h. The absorbance of each well at 450 nm was measured using a multifunctional enzyme marker. […] Three replicate wells were set up for each experiment, and each experiment was repeated three times. The formula for calculating the cell viability is shown below.

In the next data set the test system is HCT116. Format: cell-based, human. As to conditions: 24 h. The protocol:
as §2

For the next data set, the system named is Hela. Type of data set: cell-based, human. As to conditions: 24 h. The protocol:
as §2

For a further data set, the system named is 293T. Type of data set: cell-based, human. As to conditions: 24 h. As to the method:
as §2

A further data set deals with A375. Type of data set: cell-based, human. As to conditions: 24 h. As to the method:
as §2

In the next data set the test system is HePG2. Format: cell-based, human. To be noted: 24 h. The protocol: as §2
In a further data set the test system is HUVEC. Format: cell-based, human. To be noted: 24 h. The protocol:
as §2

A further data set deals with U-2OS. Type of data set: cell-based, human. As to conditions: 24 h. The protocol: as §2
In another data set the test system is A549. Type of data set: cell-based, human. As to conditions: 24 h. The protocol:
as §2

A further data set has as its system HFF. Format: cell-based, human. As to conditions: 24 h.
Data set [4] deals with K. pneumoniae (ATCC700603). The data set is described as follows: microbe, parasite or virus in culture. Format: cell-based, Klebsiella pneumoniae. To be noted: ATCC700603, 18 h. As to the method: as §1

With `CC[C@H](C)[C@@H]1NC(=O)[C@H](CCCCN)NC(=O)[C@@H](NC(=O)[C@H](Cc2ccccc2)NC(=O)[C@@H](NC(=O)[C@@H](NC(=O)[C@@H]2CCCN2C(=O)[C@H](CC(C)C)NC(=O)[C@H](Cc2ccccc2)NC(=O)[C@H](CO)NC(=O)[C@H](C)NC(=O)[C@H](C)NC(=O)[C@H](CC(C)C)NC(=O)CNC(=O)[C@H](C)NC(=O)[C@H](CC(C)C)NC(=O)[C@H](CC(C)C)NC(=O)[C@@H]2CCCN2C(=O)[C@H](CC(C)C)NC(=O)[C@@H](N)Cc2ccccc2)[C@@H](C)O)[C@@H](C)CC)CSSC[C@@H](C(=O)O)NC(=O)[C@H](CCCCN)NC(=O)[C@H](CCCNC(=N)N)NC(=O)[C@H](CO)NC1=O` [Brevinin-1BW] (H-FLPLLAGLAASFLPTIFCKISRKC-OH; disulfide 18-24), in the data set with sheep erythrocytes, the “HC50 (50% hemolytic concentration)” value is 35.8 µg/mL. In addition, the MBC in [1] was over 100 µg/mL; against E. coli (ATCC25922) it was over 100 µg/mL; in data set [2], 12.5 µg/mL (≈ 4.79 µM); in data set [4], over 100 µg/mL. In addition, the MIC in data set [1] is 100 µg/mL (≈ 38.3 µM); with E. coli (ATCC25922) it was 100 µg/mL (≈ 38.3 µM); in data set [2] it was 6.25 µg/mL (≈ 2.4 µM); in data set [4], over 100 µg/mL. Further, in the data set with S. aureus (ATCC 25923), the “MIC after temperature treatment” value is recorded as 6.25 µg/mL (≈ 2.4 µM). Further, the “MIC after pH treatment” value against S. aureus (ATCC 25923) (pH 2) and against S. aureus (ATCC 25923) (pH 12) was 6.25 µg/mL in each case. In addition, the results for the “inhibition of biofilm formation” value in data set [3] (0.5) and in [3] (2) were 35.76% and 83.67%, respectively. Besides, the half-maximal cytotoxic concentration (CC50) with HaCaT was 36.84 ± 1.44 µg/mL (≈ 14.1 µM); with HCT116, 35.44 ± 0.47 µg/mL (≈ 13.6 µM); in the data set with Hela, 37.62 ± 0.91 µg/mL (≈ 14.4 µM); in the data set with 293T, 28.34 ± 1.08 µg/mL (≈ 10.9 µM); in the data set on A375 it was 23.79 ± 0.80 µg/mL (≈ 9.12 µM); in the data set with HePG2 it was 25.42 ± 0.49 µg/mL (≈ 9.75 µM). For the same molecule, the CC50 with HUVEC came out at 43.62 ± 0.77 µg/mL (≈ 16.7 µM); in the data set with U-2OS it was 39.20 ± 0.40 µg/mL (≈ 15 µM); in the data set on A549, 27.64 ± 0.41 µg/mL (≈ 10.6 µM); in the data set on HFF, 33.99 ± 0.48 µg/mL (≈ 13 µM).
